These results are taken from publication PMC4789278, “Pharmacological inhibition of LSD1 for the treatment of MLL-rearranged leukemia” (Journal of Hematology & Oncology, 2016).

Where only a bound is given, the exact number is not on record here.

In one assay the test system is MV4-11 leukemia. As to the kind of experiment: Systemic mouse model of MV4-11 leukemia.
The target of a further assay is T1, recombinant human LSD1 (Homo sapiens, UniProt O60341).
T1 construct: Human LSD1 catalytic domain (172-833) was cloned; made in house; host or cells: E. coli BL21-CodonPlus (Agilent)
As to the kind of experiment: LSD1 enzyme inhibition assay (HRP/Amplex red). Format: biochemical. The method, then:
The LSD1 inhibition assay was performed with the reaction rate (i.e., amount of the product H2O2, Additional file 1: Figure S2) being quantitatively determined by adding horseradish peroxidase (HRP) and a HRP fluorescence substrate Amplex red.
Human LSD1 catalytic domain (172-833) was cloned and inserted into pGEX-KG vector. The correctness of insert was verified by sequencing. BL21-CodonPlus strain (Agilent) was transformed with the pGEX-KG-LSD1 plasmid and cultured at 37 °C in LB medium containing ampicillin (50 μg/mL) and chloramphenicol (34 μg/mL). Upon reaching an optical density of ~0.9 at 600 nm, LSD1 expression was induced by adding 0.2 mM isopropylthiogalactoside at 25 °C for 20 h. Cells were harvested, lysed, and centrifuged at 20,000 rpm for 20 min, and the supernatant was collected and subjected to an affinity column chromatography using the glutathione sepharose resin.
The inhibition assay for the recombinant LSD1 was performed using a published protocol, with the reaction rate (i.e., amount of the product H2O2) being quantitatively determined by adding HRP and a HRP fluorescence substrate Amplex red. […] The total volume of the reaction mixture is 60 μL. After 20 min, 60-μL solution containing HRP (0.01 unit) and Amplex red (80 μM) was added and the fluorescence of each well was determined using a Beckman DTX-880 microplate reader (excitation at 535 and emission at 595 nm). Data were imported into Prism 5.0 (GraphPad), and the IC50 values were calculated by using the sigmoidal dose response curve fitting in the software. The reported IC50s were the mean values of at least three independent experiments.

Text for MV4-11 leukemia: A mouse model of systemic MV4-11 leukemia was established by injecting 10^7 MV4-11 cells/mouse intravenously through the tail veil into NOD-SCID mice with an engraftment rate of 100 %. After 2 weeks, human CD33^+/CD45^+ leukemia cells (0.1–0.5 %) can be detected by FACS in blood samples of the mice. The disease progressed rapidly, causing deaths in ~6 weeks after leukemia transplantation. Thus, upon detection of MV4-11 engraftments, mice were randomly separated into treatment and control groups.
NOD-SCID mice (4 to 6 weeks old) were obtained from Jackson lab (Bar Harbor, ME, USA) and maintained under specific pathogen-free conditions; 10^7 MV4-11 cells/mouse were injected intravenously through the tail veil, and animal weights were monitored twice a week. After 2 weeks when the blood samples showing 0.1–0.5 % CD45+/CD33+ human leukemia cells, mice were randomly segregated into control and treatment groups. […] Animals were sacrificed when >20 % weight loss, hunched posture, ruffled fur, or inactivity was observed. The peripheral blood, spleen, and bone marrow cells were isolated and tested for CD45^+/CD33^+ using FACS. Log-rank analysis was used to determine statistical significance of the survival curves using Prism 5.0.

As to `CN1CCN(C(=O)CNC2CC2c2ccc(OCc3ccccc3)cc2)CC1` (centres unmarked) [Compound 1], in the assay with MV4-11 leukemia (2.5 mg/kg/day for 28 days), the “less leukemia cells in the blood” value stood at 92%, the “less leukemia cells in the spleen” value is recorded as 81% and the “reduction of MV4-11 leukemia cells in the bone marrow” value was 80%. The “human CD33+/CD45+ leukemia cells in the bone marrow (average)” value with MV4-11 leukemia (2.5 mg/kg/day for 28 days, control 33.6 %) was determined as 6.7%. For the same molecule, in the assay on MV4-11 leukemia (2.5 mg/kg/day for 28 days, control 34.5 days), the median survival amounted to 43 days. Besides, the “inhibition of leukemia burdens in the bone marrow, spleen, and peripheral blood” value with MV4-11 leukemia (5 mg/kg) is recorded as more than 89%. In the assay on MV4-11 leukemia (5 mg/kg/day for 28 days), the “inhibition rate in the blood” value amounted to 99%, the “inhibition rate in the bone marrow” value worked out at 96% and the “inhibition rate in the spleen” value turned out to be 89%. The same molecule yielded a median survival with MV4-11 leukemia (5 mg/kg/day for 28 days, control 45 days) of 60 days.

In the case of `CN1CCN(C(=O)CNC2CC2c2ccc(-c3ccc(F)nc3)cc2)CC1` (centres unmarked) [Compound 2], the IC50 on recombinant human LSD1 was 77 nM.

A word on the IC50: it is the midpoint of a concentration-inhibition curve.
